This is an account of results in patent publication US20070092551A1, “Therapeutic agent” (TAKARA BIO INC., priority 2003, published 2007).

The structures appear in SMILES notation.

Assay [1] has as its system mature adipocytes (3T3-L1 cells). Kind of assay: Enhancing action on glucose uptake (2-deoxyglucose) into mature adipocytes. The following applies: Mus musculus, 3T3-L1, X=(S−N)/(P−N) of 2-deoxyglucose uptake, P=insulin 1 μg/mL, read-out: Enhancing Action on Glucose Uptake. The format is cell-based.
In the next assay the test system is 3T3-L1 cells. Kind of assay: Induction of adipocyte differentiation (amount of triglyceride biosynthesis). Type of assay: cell-based. The conditions noted are these: Mus musculus, 3T3-L1, X=(S−N)/(P−N) of amount of triglyceride, P=insulin positive control, read-out: Action for Induction of Differentiation. On the procedure:
Induction of adipocyte differentiation was carried out by partially modifying the above-mentioned method of Rubin C. S. et al. In addition, as a test compound, a compound prepared in Examples mentioned above or a commercially available compound was used. 3T3-L1 cells (ATCC CCL-92.1) were suspended in a 10% fetal bovine serum (manufactured by Bio Whittaker)-containing Dulbecco's modified Eagle's medium (manufactured by Sigma, D6046) containing 200 μM ascorbic acid so as to have a density of 4×10^3 cells/mL, and the suspension was put in each well of a 12-well microtiter plate in an amount of 2 ml per well. The cells were cultured at 37° C. for 7 days in the presence of 5% carbon dioxide gas. On the seventh day, the medium was exchanged with a 10% fetal bovine serum (manufactured by Bio Whittaker)-containing Dulbecco's modified Eagle's medium containing 200 μM ascorbic acid and 0.25 μM dexamethasone, and a test compound dissolved in dimethyl sulfoxide in a concentration shown in each of Tables 16 to 19 was added to each well. Here, there were set a group with addition of 4 μL of an aqueous solution containing 5 mg/mL insulin (manufactured by TAKARA BIO INC.) as a positive control, and a group with addition of dimethyl sulfoxide as a negative control. After 45 hours, the medium was exchanged with a 10% fetal bovine serum-containing Dulbecco's modified Eagle's medium containing 200 μM ascorbic acid. A test compound, 2 μL of an aqueous solution containing 5 mg/mL insulin as a positive control, or dimethyl sulfoxide as a negative control was put to each well in the same concentration. The cells were cultured for additional 7 days. In addition, the medium was exchanged on after 2 days and after 5 days, and at that time, a test compound, 2 μL of an aqueous solution containing 5 mg/mL insulin as a positive control, or dimethyl sulfoxide as a negative control was put to each well in the same concentration.
The amount of triglyceride in the adipocytes was determined as an index of induction of differentiation into mature adipocytes, and also, as the evaluation of insulin-mimetic action.
After the termination of the culture, the medium was removed, and the cells were washed twice with a phosphate buffered saline. One milliliter of a solvent of hexane:isopropanol=3:2 was added to the cells. The mixture was allowed to stand at room temperature for 30 minutes, and thereafter the supernatant was collected. The procedures were repeated again, and 2 mL of the supernatant was concentrated to dryness. The precipitate was dissolved in 100 μL of isopropanol, and the amount of triglyceride contained in 10 μL of the solution was determined using a triglyceride E-test (manufactured by Wako Pure Chemical Industries, Ltd., code 432-40201). In addition, all the determinations were carried out twice. The action for induction of differentiation was calculated by the following calculation formula, and shown by four ranks of +++, ++, + and +/−. • S: Amount of triglyceride in the presence of a test compound; • N: Amount of triglyceride in the negative control; and • P: Amount of triglyceride in the positive control; X=(S−N)/(P−N) (Judgment of Action for Induction of Differentiation)

For `COc1ccc(C(=O)CCc2ccc(O)cc2)c(O)c1CCC(C)C` [Compound (C033), 1-(2-hydroxy-3-(3-methylbutyl)-4-methoxyphenyl)-3-(4-hydroxyphenyl)-propan-1-one], in assay [1], the activation at 3 µM lay within 30 to 60%, the activation at 10 µM was in the range of 30 to 60% and the activation at 30 µM lay within 60 to 100%. For the same compound, in the assay with 3T3-L1 cells, the activation at 3 µM was more than 100% and the activation at 10 µM was more than 100%.
`COc1ccc(/C=C/C(=O)c2ccc(OC)c(CC=C(C)C)c2O)cc1` [Compound (C035), 4,4′-dimethoxy-2′-hydroxy-3′-prenylchalcone]: in assay [1], the activation at 10 µM fell in the range of 30 to 60% and the activation at 30 µM was 60 to 100%. In addition, in the assay with 3T3-L1 cells, the activation at 3 µM is 60 to 100% and the activation at 10 µM is more than 100%.
As to `COc1ccc(C(C)=O)c(O)c1C/C=C(\C)CCC=C(C)C` [Compound (C038), 2′-hydroxy-3′-geranyl-4′-methoxyacetophenone], in assay [1], the activation at 10 µM was in the range of 30 to 60% and the activation at 30 µM was in the range of 60 to 100%. In the assay on 3T3-L1 cells, the activation at 3 µM was in the range of 30 to 60% and the activation at 10 µM is more than 100%.
On to `COc1ccc(C(C)=O)c(O)c1CCC(C)C` [Compound (C041), 2′-hydroxy-3′-(3-methylbutyl)-4′-methoxyacetophenone], for which, in assay [1], the activation at 30 µM was more than 100%. In the assay on 3T3-L1 cells, the activation at 3 µM was in the range of 30 to 60% and the activation at 10 µM is more than 100%.
Consider `CC(=O)c1ccc(OC2CCCCO2)c(CC=C(C)C)c1O` (stereo not shown) [Compound (C044), 2′-hydroxy-3′-prenyl-4′-tetrahydropyranyloxyacetophenone], for which, in assay [1], the activation at 10 µM is 30 to 60% and the activation at 30 µM is more than 100%. In the assay on 3T3-L1 cells, the activation at 3 µM was in the range of 30 to 60% and the activation at 10 µM was in the range of 60 to 100%.
On to `COc1ccc(/C=C/C(=O)c2c(OC)cc(OC)c(CC=C(C)C)c2O)cc1` [Compound (C046), 4,4′,6′-trimethoxy-2′-hydroxy-3′-prenylchalcone], for which, in assay [1], the activation at 3 µM fell in the range of 15 to 30%, the activation at 10 µM is more than 100% and the activation at 30 µM was more than 100%. Also, in the assay with 3T3-L1 cells, the activation at 3 µM fell in the range of 60 to 100% and the activation at 10 µM is more than 100%.
In the case of `CCOc1ccc(C(C)=O)c(O)c1CC=C(C)C` [Compound (C047), 2′-hydroxy-3′-prenyl-4′-ethoxyacetophenone], in assay [1], the activation at 3 µM lay in the range of 30 to 60%, the activation at 10 µM is 60 to 100% and the activation at 30 µM is more than 100%. Also, in the assay on 3T3-L1 cells, the activation at 10 µM is 30 to 60% and the activation at 30 µM lay within 60 to 100%.
Turning to `CCOc1ccc(C(C)=O)c(O)c1C/C=C(\C)CCC=C(C)C` [Compound (C048), 2′-hydroxy-3′-geranyl-4′-ethoxyacetophenone], in assay [1], the activation at 3 µM was in the range of 15 to 30%, the activation at 10 µM lay within 30 to 60% and the activation at 30 µM was more than 100%. Also, in the assay with 3T3-L1 cells, the activation at 10 µM is more than 100% and the activation at 30 µM is more than 100%.
On to `CCOc1ccc(C(=O)/C=C/c2ccc(O)cc2)c(O)c1CC=C(C)C` [Compound (C049), 4,2′-dihydroxy-3′-prenyl-4′-ethoxychalcone], for which, in assay [1], the activation at 10 µM lay within 30 to 60% and the activation at 30 µM was more than 100%. Besides, in the assay with 3T3-L1 cells, the activation at 3 µM lay within 15 to 30% and the activation at 10 µM fell in the range of 15 to 30%.
Regarding `COc1ccc(C(C)=O)c(O)c1C/C=C(\C)CC/C=C(\C)CCC=C(C)C` [Compound (C052), 2′-hydroxy-3′-farnesyl-4′-methoxyacetophenone], in assay [1], the activation at 3 µM is 15 to 30%, the activation at 10 µM is 30 to 60% and the activation at 30 µM was 30 to 60%. In addition, the activation at 10 µM with 3T3-L1 cells was in the range of 30 to 60%.
Regarding `COc1ccc(C(C)=O)c(O)c1Cc1ccccc1` [Compound (C055), 2′-hydroxy-3′-benzyl-4′-methoxyacetophenone], in assay [1], the activation at 3 µM was 15 to 30%, the activation at 10 µM was 30 to 60% and the activation at 30 µM lay in the range of 60 to 100%. Further, in the assay on 3T3-L1 cells, the activation at 3 µM is 15 to 30% and the activation at 10 µM was in the range of 30 to 60%.
On to `COc1ccc(C(=O)/C=C/c2ccc(O)cc2)c(O)c1Cc1ccccc1` [Compound (C056), 4,2′-dihydroxy-3′-benzyl-4′-methoxychalcone], for which, in assay [1], the activation at 3 µM was in the range of 15 to 30%, the activation at 10 µM is more than 100% and the activation at 30 µM is more than 100%. Also, the activation at 1 µM in the assay with 3T3-L1 cells (1 μM) lay within 15 to 30%. Moreover, in the assay on 3T3-L1 cells, the activation at 3 µM fell in the range of 30 to 60% and the activation at 10 µM was more than 100%.
As for `O=C(/C=C/c1ccc(O)cc1)c1ccc(O)c(Cc2ccccc2)c1O` [Compound (C057), 4,2′,4′-trihydroxy-3′-benzylchalcone], in assay [1], the activation at 10 µM was in the range of 15 to 30% and the activation at 30 µM was more than 100%. Moreover, in the assay with 3T3-L1 cells, the activation at 3 µM is 30 to 60% and the activation at 10 µM is more than 100%.
In the case of `CC(=O)c1ccc(OCC=C(C)C)cc1C` [Compound (C059), 2′-methyl-4′-prenyloxyacetophenone], in assay [1], the activation at 10 µM was 15 to 30% and the activation at 30 µM was 30 to 60%. Besides, in the assay with 3T3-L1 cells, the activation at 3 µM is 15 to 30%, the activation at 10 µM is 30 to 60% and the activation at 30 µM is more than 100%.
In the case of `CC(=O)Oc1ccc(/C=C/C(=O)c2ccc(OC(C)=O)c(C/C=C(\C)CCC=C(C)C)c2OC(C)=O)cc1` [Compound (C061), 4,2′,4′-triacetoxy-3′-geranylchalcone], the activation at 30 µM in assay [1] fell in the range of 30 to 60%. In addition, in the assay on 3T3-L1 cells, the activation at 3 µM was 60 to 100% and the activation at 10 µM is more than 100%.
For `COc1ccc(C(=O)/C=C/c2ccc(OC(C)=O)cc2)c(OC(C)=O)c1C/C=C(\C)CCC=C(C)C` [Compound (C064-1), 4,2′-diacetoxy-3′-geranyl-4′-methoxychalcone], in assay [1], the activation at 10 µM lay in the range of 60 to 100% and the activation at 30 µM is more than 100%. For the same compound, in the assay on 3T3-L1 cells, the activation at 3 µM was more than 100% and the activation at 10 µM was more than 100%.
For the compound `COc1ccc(C(=O)/C=C/c2ccc(O)cc2)c(OC(C)=O)c1C/C=C(\C)CCC=C(C)C` [Compound (C064-2), 2′-acetoxy-3′-geranyl-4-hydroxy-4′-methoxychalcone], in assay [1], the activation at 3 µM was 15 to 30%, the activation at 10 µM was in the range of 30 to 60% and the activation at 30 µM is more than 100%. Besides, in the assay with 3T3-L1 cells, the activation at 3 µM was more than 100% and the activation at 10 µM was more than 100%.
`O=C(/C=C/c1ccc(Cl)cc1)c1ccccc1OCc1ccccc1` [Compound (C066), 4-chloro-2′-benzyloxychalcone]: in assay [1], the activation at 10 µM lay within 60 to 100% and the activation at 30 µM fell in the range of 60 to 100%. Besides, in the assay with 3T3-L1 cells, the activation at 3 µM was in the range of 60 to 100% and the activation at 10 µM was more than 100%.
In the case of `COc1ccc(/C=C/C(=O)c2ccc(OC)c(CC=C(C)C)c2O)c(O)c1CC=C(C)C` [Compound (C072), 2,2′-dihydroxy-3,3′-diprenyl-4,4′-dimethoxychalcone], the activation at 30 µM in assay [1] was in the range of 30 to 60%. For the same compound, in the assay with 3T3-L1 cells, the activation at 3 µM was more than 100% and the activation at 10 µM is more than 100%.
For `CC(C)=CCC/C(C)=C/Cc1c(OCc2ccccc2)ccc(C(=O)/C=C/c2ccc(O)cc2)c1O` [Compound (C073), 4,2′-dihydroxy-3′-geranyl-4′-benzyloxychalcone], in assay [1], the activation at 3 µM lay in the range of 15 to 30% and the activation at 10 µM fell in the range of 15 to 30%. In the assay with 3T3-L1 cells, the activation at 3 µM was 15 to 30%.
For the compound `CC(C)=CCC/C(C)=C/Cc1c(O)ccc(C(=O)/C=C/c2ccc(Cl)cc2)c1O` [Compound (C074), 4-chloro-2′,4′-dihydroxy-3′-geranylchalcone], the activation at 30 µM in assay [1] is 30 to 60%. In addition, in the assay on 3T3-L1 cells, the activation at 3 µM was 15 to 30% and the activation at 10 µM was 30 to 60%.
